Data published in patent US20250129078A1, “ERBB2 INHIBITORS” (Cogent Biosciences, Inc., priority 2023, published 2025).

Biological target: EGFR WT (Homo sapiens (Human), UniProt P00533)
Assay: ErbB enzyme assay (CisBio HTRF-KinEASE-TK), EGFR WT
Type: biochemical
Settings: ATP at Km (25 μM), 1 h incubation
Method: In vitro enzyme assays based on CisBio HTRF-KinEASE-TK technology were used to determine compound potencies. […]. Compounds were prepared as a three-fold serial dilution in DMSO and added to the assay to give the appropriate final concentration. After a 1 h incubation at ambient temperature, the reaction was quenched by adding 10 μL of 62.5 nM Sa-XL665 and 0.25×TK-Ab-Cryptate in HTRF detection buffer (all from CisBio, part of cat #62TKOPEC). After another 1 h incubation at ambient temperature, the extent of substrate phosphorylation was determined using a PerkinElmer EnVision multimode plate reader via time-resolved fluorescence dual wavelength detection. The percent of control (POC) was calculated using the ratio of emission at […] to the emission at 620 nm. One hundred POC was determined using DMSO only controls (no test compounds present) and zero POC was determined using pre-quenched controls reactions. A 4-parameter logistic equation was fit to the POC values as a function of the test compound concentration and the IC50 value was determined as the point where the curve crossed 50 POC.

Sequence of EGFR WT (P00533 25-1210): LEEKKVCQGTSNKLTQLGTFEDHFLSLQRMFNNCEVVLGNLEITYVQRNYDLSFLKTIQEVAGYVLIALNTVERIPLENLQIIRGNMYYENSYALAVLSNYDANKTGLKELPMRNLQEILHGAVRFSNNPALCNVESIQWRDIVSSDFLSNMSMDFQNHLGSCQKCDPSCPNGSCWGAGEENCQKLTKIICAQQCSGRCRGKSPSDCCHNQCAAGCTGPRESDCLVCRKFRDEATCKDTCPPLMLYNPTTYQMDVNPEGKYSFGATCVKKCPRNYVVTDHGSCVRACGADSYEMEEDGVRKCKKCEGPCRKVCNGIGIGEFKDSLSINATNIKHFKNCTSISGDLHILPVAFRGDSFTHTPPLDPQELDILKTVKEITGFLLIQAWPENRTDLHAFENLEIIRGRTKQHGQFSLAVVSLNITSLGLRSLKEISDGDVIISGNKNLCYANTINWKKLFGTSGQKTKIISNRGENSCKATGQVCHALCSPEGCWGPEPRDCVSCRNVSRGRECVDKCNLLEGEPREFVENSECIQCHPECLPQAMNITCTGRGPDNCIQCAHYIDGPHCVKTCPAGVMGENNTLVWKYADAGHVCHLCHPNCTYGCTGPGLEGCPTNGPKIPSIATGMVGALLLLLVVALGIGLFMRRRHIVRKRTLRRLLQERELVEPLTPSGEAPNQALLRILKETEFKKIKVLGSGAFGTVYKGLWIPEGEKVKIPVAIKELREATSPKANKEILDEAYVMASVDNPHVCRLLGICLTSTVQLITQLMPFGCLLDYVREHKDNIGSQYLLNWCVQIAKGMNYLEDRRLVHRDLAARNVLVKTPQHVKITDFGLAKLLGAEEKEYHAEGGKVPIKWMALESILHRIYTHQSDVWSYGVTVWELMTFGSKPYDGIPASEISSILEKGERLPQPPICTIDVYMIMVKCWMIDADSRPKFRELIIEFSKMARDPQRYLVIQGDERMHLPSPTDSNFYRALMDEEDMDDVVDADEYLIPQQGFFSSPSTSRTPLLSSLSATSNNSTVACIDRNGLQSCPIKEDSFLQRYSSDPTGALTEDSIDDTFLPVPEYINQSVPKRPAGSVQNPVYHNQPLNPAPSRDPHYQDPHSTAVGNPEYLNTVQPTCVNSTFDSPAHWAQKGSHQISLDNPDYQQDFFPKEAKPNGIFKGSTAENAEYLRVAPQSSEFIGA

| IC50 [nM] | SMILES |
| --- | --- |
| 100 to 500 | C=CC(=O)N1CCN(c2ncc3ncnc(Nc4ccc(Oc5ccc6c(c5)nnn6C)c(C)c4)c3n2)C[C@H]1CF (single isomer, unassigned) [Compound 198] |
| < 50 | C=CC(=O)N1CCN(c2ncc3ncnc(Nc4ccc(Oc5ccc6c(c5)nnn6C)c(C)c4)c3n2)C[C@@H]1CF (single isomer, unassigned) [Compound 199] |
| ≥ 1000 | C=CC(=O)N[C@@H]1C[C@@H](C)CN(c2ncc3ncnc(Nc4ccc(Oc5ccc6c(c5)nnn6C)c(C)c4F)c3n2)C1 (single isomer, unassigned) [Compound 201] |
| 500 to 1000 | C=CC(=O)N[C@H]1C[C@H](C)CN(c2ncc3ncnc(Nc4ccc(Oc5ccc6c(c5)nnn6C)c(C)c4F)c3n2)C1 (single isomer, unassigned) [Compound 202] |
| ≥ 1000 | C=CC(=O)N[C@@H]1C[C@H](C)CN(c2ncc3ncnc(Nc4ccc(Oc5ccc6c(c5)nnn6C)c(C)c4F)c3n2)C1 (single isomer, unassigned) [Compound 203] |
| 50 to 100 | C=CC(=O)N[C@H]1C[C@@H](C)CN(c2ncc3ncnc(Nc4ccc(Oc5ccc6c(c5)nnn6C)c(C)c4F)c3n2)C1 (single isomer, unassigned) [Compound 204] |
| ≥ 1000 | C=C(F)C(=O)N1CCN(c2ncc3ncnc(Nc4ccc(Oc5ccc6c(c5)nnn6C)c(C)c4)c3n2)C[C@@H]1CF (single isomer, unassigned) [Compound 218] |
| ≥ 1000 | C=C(F)C(=O)N1CCN(c2ncc3ncnc(Nc4ccc(Oc5ccc6c(c5)nnn6C)c(C)c4)c3n2)C[C@H]1CF (single isomer, unassigned) [Compound 219] |
| ≥ 1000 | C=CC(=O)N[C@@H]1C[C@H](C)CN(c2ccc3ncnc(Nc4ccc(Oc5ccc6c(c5)nnn6C)c(C)c4F)c3n2)C1 (single isomer, unassigned) [Compound 336] |
| 100 to 500 | C=CC(=O)N[C@H]1C[C@@H](C)CN(c2ccc3ncnc(Nc4ccc(Oc5ccc6c(c5)nnn6C)c(C)c4F)c3n2)C1 (single isomer, unassigned) [Compound 337] |
| 100 to 500 | C=CC(=O)N[C@@H]1C[C@@H](C)CN(c2ccc3ncnc(Nc4ccc(Oc5ccc6c(c5)nnn6C)c(C)c4F)c3n2)C1 (single isomer, unassigned) [Compound 338] |
| 100 to 500 | C=CC(=O)N[C@H]1C[C@H](C)CN(c2ccc3ncnc(Nc4ccc(Oc5ccc6c(c5)nnn6C)c(C)c4F)c3n2)C1 (single isomer, unassigned) [Compound 339] |
| 100 to 500 | C=CC(=O)N[C@H]1CN(c2ccc3ncnc(Nc4ccc(Oc5ccc6c(c5)nnn6C)c(C)c4F)c3n2)CC[C@@H]1C (single isomer, unassigned) [Compound 346] |
| 100 to 500 | C=CC(=O)N[C@@H]1CN(c2ccc3ncnc(Nc4ccc(Oc5ccc6c(c5)nnn6C)c(C)c4F)c3n2)CC[C@H]1C (single isomer, unassigned) [Compound 347] |
| < 50 | C=CC(=O)N1CCN(c2ncc3ncnc(Nc4ccc(Oc5ccc6c(c5)nnn6C)c(C)c4F)c3n2)CC1 [Compound 7, 1-(4-(8-((2-fluoro-3-methyl-4-((1-methyl-1H-benzo[d][1,2,3]triazol-5-yl)oxy)phenyl)amino)pyrimido [5,4-d]pyrimidin-2-y1)piperazin-1-yl)prop-2-en-1-one] |
| < 50 | C=CC(=O)N1CCN(c2ncc3ncnc(Nc4ccc(Oc5ccc6c(c5)nnn6C)c(C)c4F)c3n2)CC12CC2 [Compound 8, 1-(7-(8-((2-fluoro-3-methyl-4-((1-methyl-1H-benzo[d][1,2,3]triazol-5-yl)oxy)phenyl)amino)pyrimido [5,4-d]pyrimidin-2-yl)-4,7-diazaspiro[2.5]octan-4-yl)prop-2-en-1-one] |
| 100 to 500 | C=CC(=O)N1CCN(c2ncc3ncnc(Nc4ccc(Oc5ccc6c(c5)nnn6C)c(F)c4F)c3n2)CC1 [Compound 10, 1-(4-(8-((2,3-difluoro-4-((1-methyl-1H-benzo[d][1,2,3]triazol-5-yl)oxy)phenyl)amino)pyrimido[5,4-d]pyrimidin-2-yl)piperazin-1-yl)prop-2-en-1-one] |
| ≥ 1000 | C=CC(=O)N1CCC2(CC1)CN(c1ncc3ncnc(Nc4ccc(Oc5ccc6c(c5)nnn6C)c(C)c4)c3n1)C2 [Compound 14, 1-(2-(8-((3-methyl-4-((1-methyl-1H-benzo[d][1,2,3]triazol-5-yl)oxy)phenyl)amino)pyrimido[5,4-d]pyrimidin-2-y1)-2,7-diazaspiro[3.5]nonan-7-yl)prop-2-en-1-one] |
| ≥ 1000 | C=CC(=O)N1CC2(C1)CN(c1ncc3ncnc(Nc4ccc(Oc5ccc6c(c5)nnn6C)c(C)c4F)c3n1)C2 [Compound 23, 1-(6-(8-((2-fluoro-3-methyl-4-((1-methyl-1H-benzo[d][1,2,3]triazol-5-yl)oxy)phenyl)amino)pyrimido [5,4-d]pyrimidin-2-yl)-2,6-diazaspiro[3.3]heptan-2-yl)prop-2-en-1-one] |
| 100 to 500 | C=CC(=O)N1CCN(c2ncc3ncnc(Nc4ccc(Oc5ccc6c(c5)nnn6C)c(C)c4)c3n2)C[C@H]1CO [Compound 24, (S)-1-(2-(hydroxymethyl)-4-(8-((3-methyl-4-((1-methyl-1H-benzo[d][1,2,3]triazol-5-yl)oxy)phenyl)amino)pyrimido[5,4-d]pyrimidin-2-yl)piperazin-1-yl)prop-2-en-1-one] |
| ≥ 1000 | C=CC(=O)N1CCN(c2ncc3ncnc(Nc4ccc(Oc5ccc6c(c5)nnn6C)cc4Cl)c3n2)CC1 [Compound 29, 1-(4-(8-((2-chloro-4-((1-methyl-1H-benzo[d][1,2,3]triazol-5-yl)oxy)phenyl)amino)pyrimido[5,4-d]pyrimidin-2-yl)piperazin-1-yl)prop-2-en-1-one] |
| 50 to 100 | C=CC(=O)N1CCN(c2ncc3ncnc(Nc4ccc(Oc5ccc6c(c5)ncn6C(F)F)c(C)c4)c3n2)CC1 [Compound 30, 1-(4-(8-((4-((1-(difluoromethyl)-1H-benzo[d]imidazol-5-yl)oxy)-3-methylphenyl)amino)pyrimido[5,4-d]pyrimidin-2-y1)piperazin-1-yl)prop-2-en-1-one] |
| < 50 | [2H]C1([2H])N(C(=O)C=C)C([2H])([2H])C([2H])([2H])N(c2ncc3ncnc(Nc4ccc(Oc5ccc6c(c5)nnn6C)c(C)c4)c3n2)C1([2H])[2H] [Compound 36, 1-(4-(8-((3-methyl-4-((1-methyl-1H-benzo[d][1,2,3]triazol-5-yl)oxy)phenyl)amino)pyrimido[5,4-d]pyrimidin-2-yl)piperazin-1-yl-2,2,3,3,5,5,6,6-d8)prop-2-en-1-one] |
| 100 to 500 | C=CC(=O)N1CCN(c2ncc3ncnc(Nc4cc(C)c(Oc5cc(F)c6c(c5)ncn6C)cc4OC)c3n2)CC1 [Compound 38, 1-(4-(8-((4-((7-fluoro-1-methyl-1H-benzo[d]imidazol-5-y1)oxy)-2-methoxy-5-methylphenyl)amino)pyrimido[5,4-d]pyrimidin-2-yl)piperazin-1-yl)prop-2-en-1-one 2,2,2-trifluoroacetate] |
| 100 to 500 | C=CC(=O)N1CCN(c2ncc3ncnc(Nc4cc(C)c(Oc5cc(F)c6c(c5)ncn6C)cc4OC)c3n2)C[C@H]1C [Compound 41, (R)-1-(4-(8-((4-((7-fluoro-1-methyl-1H-benzo[d]imidazol-5-yl)oxy)-2-methoxy-5-methylphenyl)amino)pyrimido[5,4-d]pyrimidin-2-y1)-2-methylpiperazin-1-y1)prop-2-en-1-one] |
